The values below come from ChEMBL document CHEMBL4765417, “Targeting Protein Folding: A Novel Approach for the Treatment of Pathogenic Bacteria” (J Med Chem, 2020).

Series [1] deals with Outer membrane protein MIP (Legionella pneumophila, UniProt Q70YI1). Kind of series: Inhibition of Legionella pneumophila Mip assessed as reduction in PPIase activity using succinyl-Ala-Leu-Pro-Phe-4-nitroanilide as substrate incubated for 4 mins by absorbance method.
Series [2] can be described thus: Inhibition of Neisseria gonorrhoeae N2009 Mip using N-succinyl-Ala-Ala-Pro-Phe-4-nitroanilide as substrate by absorbance method.
Series [3] concerns Chlamydia trachomatis. Put plainly: Antibacterial activity against Chlamydia trachomatis infected in human HeLa cells at 5 uM assessed as reduction in progeny infection administered immediately followed by bacterial infection by Western blot analysis. Format: functional. More on the design: scale not given: the % may be the effect or the level left.
In series [4] the test system is Chlamydia trachomatis. Kind of series: Antibacterial activity against Chlamydia trachomatis infected in human HeLa cells at 5 uM administered at 8 to 24 hrs post infection by phalloidin dye based Alexa Fluor immunofluorescence microscopy. Format: functional. The settings on record: time 8-24 hrs.
Series [5] concerns Chlamydia trachomatis. Put plainly: Antibacterial activity against Chlamydia trachomatis infected in human HeLa cells at 5 uM assessed as reduction in progeny infection administered at 8 to 24 hrs post infection by Western blot analysis. Format: functional. More on the design: scale not given: the % may be the effect or the level left. Particulars: time 8-24 hrs.
Series [6] can be described thus: Inhibition of Chlamydia trachomatis Mip using N-succinyl-Ala-Ala-Pro-Phe-4-nitroanilide as substrate by absorbance method.
Series [7] deals with Chlamydia trachomatis. Kind of series: Antibacterial activity against Chlamydia trachomatis infected in human HeLa cells at 5 uM assessed as reduction in progeny infection administered immediately followed by bacterial infection by phalloidin dye based Alexa Fluor immunofluorescence microscopy. More on the design: scale not given: the % may be the effect or the level left. Format: functional.

Series [8] relates to HCT-116. Kind of series: Antiproliferative activity against human HCT116 cells incubated for 24 hrs by cell count reagent SF based assay. Particulars: HCT-116, 24 h. Format: functional.
Series [9] concerns the target Peptidyl-prolyl cis-trans isomerase FKBP1A (Homo sapiens, UniProt P62942). Put plainly: Inhibition of human FKBP12 assessed as reduction in PPIase activity using succinyl-Ala-Leu-Pro-Phe-4-nitroanilide as substrate incubated for 4 mins by absorbance method.
Series [10] can be described thus: clinical. The settings on record: human, in vivo, po, 30 mg/m2.

Structures are written as SMILES. pEC50, pIC50: −log10 of the molar value.

Outer membrane protein MIP, sequence (Q70YI1 21-233 limits assumed): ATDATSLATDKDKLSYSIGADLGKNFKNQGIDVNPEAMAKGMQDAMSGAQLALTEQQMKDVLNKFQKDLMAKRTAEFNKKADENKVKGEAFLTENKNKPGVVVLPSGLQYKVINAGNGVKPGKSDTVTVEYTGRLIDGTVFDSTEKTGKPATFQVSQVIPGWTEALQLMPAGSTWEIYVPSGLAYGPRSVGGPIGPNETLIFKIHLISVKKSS
Peptidyl-prolyl cis-trans isomerase FKBP1A, sequence (P62942 whole entry): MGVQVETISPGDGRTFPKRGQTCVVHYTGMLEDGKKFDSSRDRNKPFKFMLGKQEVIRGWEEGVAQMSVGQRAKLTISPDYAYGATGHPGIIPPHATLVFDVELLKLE

Regarding `C[C@@H]1CC([C@H](O)CC2CC(=O)N(CC(=O)N(C)C(C)(C)C)C(=O)C2)C(=O)[C@@H](C)C1` (stereo partly specified), in series [1], the negative-log IC50 (pIC50) was 4.50.
Turning to `COc1cc(CCCOC(=O)C2CCCCN2S(=O)(=O)Cc2ccc([N+](=O)[O-])cc2)cc(OC)c1OC` (stereo unspecified), the pIC50 in series [2] is 7.02; in series [6], 7.19. Moreover, the Activity in series [3], in series [4], in series [5] and in series [7] was 50% throughout.
Take `S=C(SC(=S)C1CCCCC1)C1CCCCC1`: the pEC50 in series [8] was 5.00.
In the case of `COc1cc(CCCOC(=O)C2CCCCN2S(=O)(=O)Cc2cccc([N+](=O)[O-])c2)cc(OC)c1OC` (stereo unspecified), the pIC50 is 5.55 in series [2] and 6.62 in series [6].
Take `CCC12CC3CC(C1)C(NC(=O)CN1C(=O)CC(C[C@@H](O)C4C[C@@H](C)C[C@H](C)C4=O)CC1=O)C(C3)C2` (stereo partly specified): the negative-log IC50 (pIC50) in series [9] is 6.72; in series [1] it was 5.25.
The corresponding values for `C[C@@H]1CC([C@H](O)CC2CC(=O)N(CC(=O)NC3C4CC5(C)CC3CC(C)(C4)C5)C(=O)C2)C(=O)[C@@H](C)C1` (stereo partly specified) are 6.74 and 5.77.
Take `C[C@@H]1CC([C@H](O)CC2CC(=O)N(CC(=O)NC3C4CC5(C)CC(O)(C4)CC3(C)C5)C(=O)C2)C(=O)[C@@H](C)C1` (stereo partly specified): the results for the negative logarithm of the IC50 (pIC50) in series [9] and in series [1] were 6.66 and 5.31, respectively.
In the case of `C[C@@H]1CC([C@H](O)CC2CC(=O)N(CC(=O)NC3C4CC5CC3CC(O)(C5)C4)C(=O)C2)C(=O)[C@@H](C)C1` (stereo partly specified), the pIC50 in series [9] was 5.92; in [1], 4.66.
On to `CO[C@H]1C[C@@H]2CC[C@@H](C)[C@@](O)(O2)C(=O)C(=O)N2CCCC[C@H]2C(=O)O[C@H]([C@H](C)C[C@@H]2CC[C@@H](O)[C@H](OC)C2)CC(=O)[C@H](C)/C=C(\C)[C@@H](O)[C@@H](OC)C(=O)[C@H](C)C[C@H](C)/C=C/C=C/C=C/1C` [SIROLIMUS], for which the results for the negative logarithm of the IC50 (pIC50) in [2] and in series [6] were 7.80 and 8.10, respectively.
In the case of `CC1=C(/C=C/C(C)=C/C=C/C(C)=C/C(=O)O)C(C)(C)CCC1` [TRETINOIN], the half-life at 672 h in series [10] was determined as 45 min.
